In general, pIC50 refers to the IC50 on a negative log10 scale, so that one unit is a factor of ten.

pIC50: −log10 of the molar value.

Chain of Aminopeptidase N (Oryctolagus cuniculus) (P15541 whole entry, looked up): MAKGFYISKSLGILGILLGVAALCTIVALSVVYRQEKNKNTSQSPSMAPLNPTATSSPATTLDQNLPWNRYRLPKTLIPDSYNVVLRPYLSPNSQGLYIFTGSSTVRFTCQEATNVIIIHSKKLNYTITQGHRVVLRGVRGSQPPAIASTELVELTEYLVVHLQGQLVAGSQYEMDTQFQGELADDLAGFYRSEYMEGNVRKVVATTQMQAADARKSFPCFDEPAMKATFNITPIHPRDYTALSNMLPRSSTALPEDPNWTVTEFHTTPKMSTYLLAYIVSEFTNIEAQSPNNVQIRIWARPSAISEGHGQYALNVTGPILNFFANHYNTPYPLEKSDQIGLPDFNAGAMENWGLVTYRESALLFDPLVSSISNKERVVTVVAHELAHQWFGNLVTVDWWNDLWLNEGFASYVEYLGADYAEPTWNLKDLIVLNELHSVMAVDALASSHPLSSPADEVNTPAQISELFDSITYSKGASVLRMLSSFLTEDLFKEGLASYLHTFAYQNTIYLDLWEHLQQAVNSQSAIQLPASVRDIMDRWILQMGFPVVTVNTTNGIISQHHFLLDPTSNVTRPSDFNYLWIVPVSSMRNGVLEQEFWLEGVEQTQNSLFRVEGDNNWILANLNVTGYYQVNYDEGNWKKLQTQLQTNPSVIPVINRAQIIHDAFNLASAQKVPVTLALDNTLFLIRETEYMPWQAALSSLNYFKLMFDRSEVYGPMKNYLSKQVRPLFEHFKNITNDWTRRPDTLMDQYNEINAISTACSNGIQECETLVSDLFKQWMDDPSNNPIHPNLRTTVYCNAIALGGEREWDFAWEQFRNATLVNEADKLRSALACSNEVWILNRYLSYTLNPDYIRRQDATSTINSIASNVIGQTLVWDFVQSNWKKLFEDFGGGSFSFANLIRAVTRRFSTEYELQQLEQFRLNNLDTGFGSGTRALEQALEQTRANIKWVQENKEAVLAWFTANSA

The assay concerns the target Aminopeptidase N (Oryctolagus cuniculus) (UniProt P15541). Put plainly: Inhibitory activity against rabbit kidney aminopeptidase using 10 nM of [3H]Leu-enkephalin as substrate.
The compound `O=C(O)CNC(=O)C(Cc1ccccc1)C(=O)NO` (racemic) showed a pIC50 of 4.00.
The same measure for `C[C@H](NC(=O)[C@@H](CC(=O)NO)Cc1ccccc1)C(=O)O` (racemic) [(RS)-2-(2-Benzyl-3-hydroxycarbamoyl-propionylamino)-propionic acid]: 6.15; for `O=CN(O)C(Cc1ccccc1)C(=O)NCC(=O)O` (centres undefined) [[2-(Formyl-hydroxy-amino)-3-phenyl-propionylamino]-acetic acid]: 4.60.
In turn, `O=CN(O)CC(Cc1ccccc1)C(=O)NCC(=O)O` (centres undefined) [[2-Benzyl-3-(formyl-hydroxy-amino)-propionylamino]-acetic acid] showed a pIC50 of 6.07.

The record behind these values is BindingDB's records for doi:10.1021/jm00147a007 (1985).
